According to PubChem BioAssay AID248 (DTP/NCI, 2004):
“And” between values parts separate entries of the source, which are not always exact repeats. Equal values may be shown once. Toxic doses and inconclusive results are not listed. No stated cut-off is given here; in the data, active means T/C of 150% or more; inactive means T/C below 125%.

System: L1210 leukemia ip in BDF1 mice, survival T/C
Experiment: NCI In Vivo Anticancer Drug Screen. Data for tumor model L1210 Leukemia (intraperitoneal) in B6D2F1 (BDF1) mice
Conditions: endpoint: mean survival time, higher = longer survival
In short: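 Value reflects the ratio of survival in compound-treated mice to survival in vehicle-treated controls, with both groups carrying the same transplanted tumor.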

[1] = dose: 75.0 mg/kg/injection, schedule: Q01DX001 (ip), vehicle: other
[2] = dose: 150.0 mg/kg/injection, schedule: Q01DX001 (ip), vehicle: other
[3] = dose: 100.0 mg/kg/injection, schedule: Q04DX003 (ip), vehicle: Klucel (hydroxypropylcellulose) (HPC)
[4] = dose: 200.0 mg/kg/injection, schedule: Q04DX003 (ip), vehicle: Klucel (hydroxypropylcellulose) (HPC)
[5] = dose: 50.0 mg/kg/injection, schedule: Q01DX001 (ip), vehicle: saline
[6] = dose: 100.0 mg/kg/injection, schedule: Q01DX001 (ip), vehicle: saline
[7] = dose: 100.0 mg/kg/injection, schedule: Q04DX003 (ip), vehicle: saline
[8] = dose: 200.0 mg/kg/injection, schedule: Q04DX003 (ip), vehicle: saline
[9] = dose: 400.0 mg/kg/injection, schedule: Q04DX003 (ip), vehicle: saline
[10] = dose: 100.0 mg/kg/injection, schedule: Q01DX009 (ip), vehicle: saline with Tween-80
[11] = dose: 200.0 mg/kg/injection, schedule: Q01DX009 (ip), vehicle: saline with Tween-80
[12] = dose: 100.0 mg/kg/injection, schedule: Q04DX002 (ip), vehicle: Klucel (hydroxypropylcellulose) (HPC)
[13] = dose: 200.0 mg/kg/injection, schedule: Q04DX002 (ip), vehicle: Klucel (hydroxypropylcellulose) (HPC)
[14] = dose: 400.0 mg/kg/injection, schedule: Q04DX002 (ip), vehicle: Klucel (hydroxypropylcellulose) (HPC)
[15] = dose: 400.0 mg/kg/injection, schedule: Q04DX003 (ip), vehicle: Klucel (hydroxypropylcellulose) (HPC)

Measured: T/C

C#CCOS(C)(=O)=O
inactive: dose: 10.0 mg/kg/injection, schedule: Q01DX009 (ip), vehicle: saline 108 % of control | dose: 10.0 mg/kg/injection, schedule: Q04DX002 (ip), vehicle: saline 107 % of control | dose: 20.0 mg/kg/injection, schedule: Q01DX009 (ip), vehicle: saline 124 % of control | dose: 20.0 mg/kg/injection, schedule: Q04DX002 (ip), vehicle: saline 103 % of control | dose: 40.0 mg/kg/injection, schedule: Q04DX002 (ip), vehicle: saline 103 % of control

Cc1ccc(N=Nc2c(C)nn(C(N)=S)c2C)cc1
inactive: [1] 100 % of control | [2] 103 % of control

CCC1(CC)COC(=O)NC1=O
inactive: dose: 1.56 mg/kg/injection, schedule: Q01DX009 (ip), vehicle: saline 105 % of control | dose: 3.12 mg/kg/injection, schedule: Q01DX009 (ip), vehicle: saline 116 % of control | dose: 6.25 mg/kg/injection, schedule: Q01DX009 (ip), vehicle: saline 103 % of control | dose: 6.25 mg/kg/injection, schedule: Q04DX003 (ip), vehicle: saline 101 % of control | dose: 12.5 mg/kg/injection, schedule: Q01DX009 (ip), vehicle: saline 103 % of control | dose: 12.5 mg/kg/injection, schedule: Q04DX003 (ip), vehicle: saline 101 % of control | dose: 25.0 mg/kg/injection, schedule: Q01DX009 (ip), vehicle: saline 97 % of control | dose: 25.0 mg/kg/injection, schedule: Q04DX003 (ip), vehicle: saline 87 % of control

O=C(O)C(CO)NS(=O)(=O)Cc1ccccc1 (stereo unspecified)
inactive: dose: 100.0 mg/kg/injection, schedule: Q01DX001 (ip), vehicle: other 104 % of control | dose: 200.0 mg/kg/injection, schedule: Q01DX001 (ip), vehicle: other 96 % of control | dose: 400.0 mg/kg/injection, schedule: Q01DX001 (ip), vehicle: other 96 % of control

O=C1C=Cc2ccc(O)cc2C1=O
inactive: dose: 0.57 mg/kg/injection, schedule: Q01DX Z (ip), vehicle: saline 107 % of control | dose: 0.86 mg/kg/injection, schedule: Q01DX Z (ip), vehicle: saline 109 % of control | dose: 1.3 mg/kg/injection, schedule: Q01DX Z (ip), vehicle: saline 113 % of control | dose: 2.0 mg/kg/injection, schedule: Q01DX Z (ip), vehicle: saline 101 % of control and 104 % of control | dose: 3.0 mg/kg/injection, schedule: Q01DX Z (ip), vehicle: saline 89 % of control | dose: 4.5 mg/kg/injection, schedule: Q01DX Z (ip), vehicle: saline 95 % of control | dose: 6.7 mg/kg/injection, schedule: Q01DX Z (ip), vehicle: saline 101 % of control and 90 % of control | dose: 10.0 mg/kg/injection, schedule: Q01DX001 (ip), vehicle: acetone 104 % of control

Cn1cc([N+](=O)[O-])c2ccccc2c1=O
inactive: [3] 109 % of control | [4] 120 % of control

C=C(Cl)CN1CCCC(=O)c2ccccc21
inactive: dose: 100.0 mg/kg/injection, schedule: Q01DX009 (ip), vehicle: saline 100 % of control | dose: 200.0 mg/kg/injection, schedule: Q01DX009 (ip), vehicle: saline 94 % of control | dose: 400.0 mg/kg/injection, schedule: Q01DX009 (ip), vehicle: saline 96 % of control

NC(=S)NN=C1CCC1
inactive: [5] 98 % of control | [6] 93 % of control and 91 % of control

Nc1nc(N)c2cc(CNc3ccc(C(=O)NC(CCCC(=O)O)C(=O)O)cc3)ccc2n1 (stereo unspecified)
inactive: dose: 0.25 mg/kg/injection, schedule: Q01DX009 (ip), vehicle: saline 124 % of control | dose: 0.5 mg/kg/injection, schedule: Q01DX009 (ip), vehicle: saline 117 % of control | dose: 2.0 mg/kg/injection, schedule: Q01DX009 (ip), vehicle: saline 101 % of control | dose: 16.0 mg/kg/injection, schedule: Q04DX003 (ip), vehicle: saline 92 % of control

O=C(c1ccc(Cl)c(Cl)c1)n1c2ccccc2c2ccccc21
inactive: [7] 102 % of control | [8] 100 % of control | [9] 100 % of control

COc1cc(O)c(C(=O)O)c(OC)c1
inactive: dose: 100.0 mg/kg/injection, schedule: Q01DX009 (ip), vehicle: other 103 % of control | [7] 104 % of control | dose: 200.0 mg/kg/injection, schedule: Q01DX009 (ip), vehicle: other 103 % of control | [8] 102 % of control | dose: 400.0 mg/kg/injection, schedule: Q01DX009 (ip), vehicle: other 101 % of control | [9] 98 % of control

CC1CN=C(c2ccc(O)cc2O)S1 (stereo unspecified)
inactive: dose: 100.0 mg/kg/injection, schedule: Q04DX002 (ip), vehicle: saline 93 % of control | dose: 200.0 mg/kg/injection, schedule: Q04DX002 (ip), vehicle: saline 104 % of control | dose: 400.0 mg/kg/injection, schedule: Q04DX002 (ip), vehicle: saline 96 % of control

NCC(OCC(=O)O)C(Cl)(Cl)Cl (stereo unspecified)
inactive: [10] 93 % of control | [11] 95 % of control | dose: 400.0 mg/kg/injection, schedule: Q01DX009 (ip), vehicle: saline with Tween-80 90 % of control

O=S(O)c1ncnc2nc[nH]c12
inactive: [7] 101 % of control | [8] 106 % of control | [9] 95 % of control

Cn1c2nc(=O)n(-c3ccccc3)c(=O)c-2nc2c1CCCC2
inactive: dose: 6.25 mg/kg/injection, schedule: Q01DX009 (ip), vehicle: saline with Tween-80 110 % of control | dose: 12.5 mg/kg/injection, schedule: Q01DX009 (ip), vehicle: saline with Tween-80 106 % of control | dose: 25.0 mg/kg/injection, schedule: Q01DX009 (ip), vehicle: saline with Tween-80 101 % of control | dose: 50.0 mg/kg/injection, schedule: Q01DX009 (ip), vehicle: saline with Tween-80 103 % of control | [10] 105 % of control | [11] 100 % of control

C[CH2][Sn]([CH2]C)([CH2]C)[O]C(=O)CO
inactive: dose: 3.12 mg/kg/injection, schedule: Q04DX002 (ip), vehicle: saline 93 % of control | dose: 6.25 mg/kg/injection, schedule: Q04DX002 (ip), vehicle: saline 117 % of control | dose: 12.5 mg/kg/injection, schedule: Q04DX002 (ip), vehicle: saline 104 % of control

CCc1cc2oc(C)c(C)c2c(N=Nc2ccc(Cl)cc2)c1O
inactive: [12] 99 % of control | [13] 96 % of control | [14] 99 % of control

COc1ccc(C(=O)NCCc2ccccc2)cc1
inactive: [3] 96 % of control | [4] 105 % of control | [15] 104 % of control

OCCCC1CC2C=CC1C2 (stereo unspecified)
inactive: [1] 102 % of control | [2] 94 % of control

Cc1ccc(NC(=O)OCCCl)c([N+](=O)[O-])c1
inactive: dose: 100.0 mg/kg/injection, schedule: Q01DX001 (ip), vehicle: Klucel (hydroxypropylcellulose) (HPC) 106 % of control | dose: 100.0 mg/kg/injection, schedule: Q01DX009 (ip), vehicle: Klucel (hydroxypropylcellulose) (HPC) 96 % of control and 100 % of control | [12] 97 % of control and 102 % of control | [3] 98 % of control | dose: 200.0 mg/kg/injection, schedule: Q01DX001 (ip), vehicle: Klucel (hydroxypropylcellulose) (HPC) 101 % of control | dose: 200.0 mg/kg/injection, schedule: Q01DX009 (ip), vehicle: Klucel (hydroxypropylcellulose) (HPC) 94 % of control and 111 % of control | [13] 96 % of control and 97 % of control | [4] 93 % of control | dose: 400.0 mg/kg/injection, schedule: Q01DX001 (ip), vehicle: Klucel (hydroxypropylcellulose) (HPC) 98 % of control | dose: 400.0 mg/kg/injection, schedule: Q01DX009 (ip), vehicle: Klucel (hydroxypropylcellulose) (HPC) 94 % of control and 91 % of control | [14] 97 % of control and 98 % of control | [15] 111 % of control

C=C(Cl)CN(C)CC(=C)Cl
inactive: [6] 102 % of control

Brc1ccc([I+]c2ccccc2)cc1
inactive: [5] 103 % of control | [6] 106 % of control | dose: 200.0 mg/kg/injection, schedule: Q01DX001 (ip), vehicle: saline 95 % of control

CC(=O)OC1CCC2(C)C(CCC3C2CCC2(C)C3CC3OC(CCC(C)O)C(C)C32)C1 (stereo unspecified)
inactive: dose: 25.0 mg/kg/injection, schedule: Q04DX002 (ip), vehicle: saline with Tween-80 102 % of control | dose: 50.0 mg/kg/injection, schedule: Q04DX002 (ip), vehicle: saline with Tween-80 98 % of control | dose: 100.0 mg/kg/injection, schedule: Q04DX002 (ip), vehicle: saline with Tween-80 94 % of control
